Experimental data published in ChEMBL document CHEMBL3885881, “DrugMatrix”.

Organism: Rattus norvegicus
Test: DrugMatrix - Regimen: Daily Repeat
Format: toxicity, organism-based, Sprague-Dawley
Set-up: regimen Daily Repeat, gender Male, age 6-8 weeks
Conditions: in vivo, po, route oral GAVAGE, vehicle 100 % SALINE; for ABSOLUTE BASOPHIL / ABSOLUTE EOSINOPHIL / ABSOLUTE LYMPHOCYTE / ABSOLUTE MONOCYTE / ABSOLUTE SEGMENTED NEUTROPHIL / BASOPHIL / EOSINOPHIL / ERYTHROCYTE COUNT / HEMATOCRIT / HEMOGLOBIN / LEUKOCYTE COUNT / LYMPHOCYTE / MEAN CORPUSCULAR HEMOGLOBIN / MEAN CORPUSCULAR HEMOGLOBIN CONCENTRATION / MEAN CORPUSCULAR VOLUME / MONOCYTE / NEUTROPHIL / NUCLEATED RED BLOOD CELLS / PLATELET COUNT: tissue Blood; for ALANINE AMINOTRANSFERASE / ALBUMIN / ALKALINE PHOSPHATASE / ASPARTATE AMINOTRANSFERASE / BLOOD UREA NITROGEN / CARBON DIOXIDE / CHLORIDE / CHOLESTEROL / CREATINE PHOSPHOKINASE / CREATININE / GLUCOSE / LACTATE DEHYDROGENASE / LIPASE / PHOSPHORUS / POTASSIUM / SODIUM / TOTAL BILIRUBIN / TOTAL PROTEIN / URIC ACID: tissue Plasma
[1] = 0 mg/kg, 72 h, dose level Control, time 3 day
[2] = 0 mg/kg, […], dose level Control, time 7 day
[3] = 3000 mg/kg, 72 h, dose level Low, time 3 day

CCO [ALCOHOL]
ABSOLUTE BASOPHIL [1]: 0 CELLS/uL | ABSOLUTE EOSINOPHIL [1]: 66 CELLS/uL | ABSOLUTE LYMPHOCYTE [1]: 11922.83 CELLS/uL | ABSOLUTE MONOCYTE [1]: 401.5 CELLS/uL | ABSOLUTE SEGMENTED NEUTROPHIL [1]: 1526.33 CELLS/uL | BASOPHIL [1]: 0% | EOSINOPHIL [1]: 0.5% | ERYTHROCYTE COUNT [1]: 5.62 x10E6/uL | HEMATOCRIT [1]: 37.17% | HEMOGLOBIN [1]: 13.53 G/DL | LEUKOCYTE COUNT [1]: 13.92 x10E3/uL | LYMPHOCYTE [1]: 86.17% | MEAN CORPUSCULAR HEMOGLOBIN [1]: 24.07 pg | MEAN CORPUSCULAR HEMOGLOBIN CONCENTRATION [1]: 36.42 G/DL | MEAN CORPUSCULAR VOLUME [1]: 66.1 fL | MONOCYTE [1]: 3% | NEUTROPHIL [1]: 10.33% | NUCLEATED RED BLOOD CELLS [1]: 0 /100WBC | PLATELET COUNT [1]: 1107 x10E3/uL | ALANINE AMINOTRANSFERASE [1]: 45.33 u/L | ALBUMIN [1]: 4.3 G/DL | ALKALINE PHOSPHATASE [1]: 321.33 u/L | ASPARTATE AMINOTRANSFERASE [1]: 77.33 u/L | BLOOD UREA NITROGEN [1]: 14.33 mg/dL | CARBON DIOXIDE [1]: 32.33 mmol/L | CHLORIDE [1]: 99.67 MEQ/L | CHOLESTEROL [1]: 82.33 mg/dL | CREATINE PHOSPHOKINASE [1]: 205.5 u/L | CREATININE [1]: 0.19 mg/dL | GLUCOSE [1]: 150.83 mg/dL | LACTATE DEHYDROGENASE [1]: 88.17 u/L | LIPASE [1]: 10.83 u/L | PHOSPHORUS [1]: 10.9 mg/dL | POTASSIUM [1]: 5.83 MEQ/L | SODIUM [1]: 145.15 MEQ/L | TOTAL BILIRUBIN [1]: 0.12 mg/dL | TOTAL PROTEIN [1]: 6.22 G/DL | URIC ACID [1]: 1 mg/dL | ABSOLUTE BASOPHIL [2]: 0 CELLS/uL | ABSOLUTE EOSINOPHIL [2]: 22 CELLS/uL | ABSOLUTE LYMPHOCYTE [2]: 11105.17 CELLS/uL | ABSOLUTE MONOCYTE [2]: 258.17 CELLS/uL | ABSOLUTE SEGMENTED NEUTROPHIL [2]: 881.33 CELLS/uL | BASOPHIL [2]: 0% | EOSINOPHIL [2]: 0.17% | ERYTHROCYTE COUNT [2]: 5.29 x10E6/uL | HEMATOCRIT [2]: 34.03% | HEMOGLOBIN [2]: 13.67 G/DL | LEUKOCYTE COUNT [2]: 12.27 x10E3/uL | LYMPHOCYTE [2]: 90.83% | MEAN CORPUSCULAR HEMOGLOBIN [2]: 25.9 pg | MEAN CORPUSCULAR HEMOGLOBIN CONCENTRATION [2]: 40.18 G/DL | MEAN CORPUSCULAR VOLUME [2]: 64.42 fL | MONOCYTE [2]: 2.17% | NEUTROPHIL [2]: 6.83% | NUCLEATED RED BLOOD CELLS [2]: 0 /100WBC | PLATELET COUNT [2]: 1159.83 x10E3/uL | ALANINE AMINOTRANSFERASE [2]: 45.83 u/L | ALBUMIN [2]: 4.1 G/DL | ALKALINE PHOSPHATASE [2]: 240 u/L | ASPARTATE AMINOTRANSFERASE [2]: 88.67 u/L | BLOOD UREA NITROGEN [2]: 13.67 mg/dL | CARBON DIOXIDE [2]: 31.83 mmol/L | CHLORIDE [2]: 96.83 MEQ/L | CHOLESTEROL [2]: 71.17 mg/dL | CREATINE PHOSPHOKINASE [2]: 202.5 u/L | CREATININE [2]: 0.22 mg/dL | GLUCOSE [2]: 132.67 mg/dL | LACTATE DEHYDROGENASE [2]: 107.17 u/L | LIPASE [2]: 10.5 u/L | PHOSPHORUS [2]: 10.47 mg/dL | POTASSIUM [2]: 6.23 MEQ/L | SODIUM [2]: 140.73 MEQ/L | TOTAL BILIRUBIN [2]: 0.12 mg/dL | TOTAL PROTEIN [2]: 6.18 G/DL | URIC ACID [2]: 0.87 mg/dL | ABSOLUTE BASOPHIL [3]: 0 CELLS/uL | ABSOLUTE EOSINOPHIL [3]: 0 CELLS/uL | ABSOLUTE LYMPHOCYTE [3]: 9478 CELLS/uL | ABSOLUTE MONOCYTE [3]: 154.17 CELLS/uL | ABSOLUTE SEGMENTED NEUTROPHIL [3]: 701.17 CELLS/uL | BASOPHIL [3]: 0% | EOSINOPHIL [3]: 0% | ERYTHROCYTE COUNT [3]: 5.61 x10E6/uL | HEMATOCRIT [3]: 37.43% | HEMOGLOBIN [3]: 13.38 G/DL | LEUKOCYTE COUNT [3]: 10.33 x10E3/uL | LYMPHOCYTE [3]: 91.5% | MEAN CORPUSCULAR HEMOGLOBIN [3]: 23.87 pg | MEAN CORPUSCULAR HEMOGLOBIN CONCENTRATION [3]: 35.78 G/DL | MEAN CORPUSCULAR VOLUME [3]: 66.65 fL | MONOCYTE [3]: 1.5% | NEUTROPHIL [3]: 7% | NUCLEATED RED BLOOD CELLS [3]: 0 /100WBC | PLATELET COUNT [3]: 1014.67 x10E3/uL | ALANINE AMINOTRANSFERASE [3]: 55.33 u/L | ALBUMIN [3]: 4.22 G/DL | ALKALINE PHOSPHATASE [3]: 351.5 u/L | ASPARTATE AMINOTRANSFERASE [3]: 80.33 u/L | BLOOD UREA NITROGEN [3]: 10.17 mg/dL | CARBON DIOXIDE [3]: 30.17 mmol/L | CHLORIDE [3]: 99.8 MEQ/L | CHOLESTEROL [3]: 73.17 mg/dL | CREATINE PHOSPHOKINASE [3]: 216.33 u/L | CREATININE [3]: 0.24 mg/dL | GLUCOSE [3]: 152.67 mg/dL | LACTATE DEHYDROGENASE [3]: 102.83 u/L | LIPASE [3]: 8.17 u/L | PHOSPHORUS [3]: 10.45 mg/dL | POTASSIUM [3]: 5.55 MEQ/L | SODIUM [3]: 144.46 MEQ/L | TOTAL BILIRUBIN [3]: 0.1 mg/dL | TOTAL PROTEIN [3]: 6.13 G/DL | URIC ACID [3]: 0.87 mg/dL
